Laboratory results reported in patent publication US12091402B2 (Avilar Therapeutics, Inc., priority 2021, dated 2024).
Read-outs that look alike come from different tables or passages of the source. *1 amine or outer side, *2 acyl side, *3 side chain or, on linkers, in order; H or OH if unused. Where a SMILES comes first, the peptide text is derived from it. Bridges are numbered along the chain shown (N, C = ends). [ ]: non-standard residue; d: D form. The star is where a group is joined. X2 = O=C(CCOCC(COCCC(=O)NCCOCCOCCOCCOC[C@H]1OC[C@H](Nc2cncc(C(F)(F)F)n2)[C@@H](O)[C@H]1O)NCC(=O)*)NCCOCCOCCOCCOC[C@H]1OC[C@H](Nc2cncc(C(F)(F)F)n2)[C@@H](O)[C@H]1O; X1 = O=C([C@@H]1C[C@H](N[*:3])CN1[*:1])[*:2]

How the values were obtained:
IgG = experiment: Affinity to IgG by surface plasmon resonance (SPR); type: binding
Method: Immobilization levels ranging from 1000-1300 resonance units (RU) are obtained. The running buffer is 10 mM HEPES, pH 7.4, 400 mM NaCl, 0.005% P20, […].

[1] = biological target: T1, ASGPR receptor on the cell surface (HepG2 cells) (Homo sapiens, UniProt P07306); experiment: Ternary complex formation assay (flow cytometry, HepG2); type: cell-based
T1 construct: host or cells: HepG2
T1 sequence (P07306 1-291): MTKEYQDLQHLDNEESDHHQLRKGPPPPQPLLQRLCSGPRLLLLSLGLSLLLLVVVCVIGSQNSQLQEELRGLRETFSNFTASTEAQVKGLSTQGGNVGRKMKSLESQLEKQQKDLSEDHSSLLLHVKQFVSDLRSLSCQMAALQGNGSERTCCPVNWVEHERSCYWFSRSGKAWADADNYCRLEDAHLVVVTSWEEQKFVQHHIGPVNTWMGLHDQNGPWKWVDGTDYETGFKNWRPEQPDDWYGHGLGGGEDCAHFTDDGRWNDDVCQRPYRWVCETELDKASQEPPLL
T1 sequence (P07307 1-311 partner): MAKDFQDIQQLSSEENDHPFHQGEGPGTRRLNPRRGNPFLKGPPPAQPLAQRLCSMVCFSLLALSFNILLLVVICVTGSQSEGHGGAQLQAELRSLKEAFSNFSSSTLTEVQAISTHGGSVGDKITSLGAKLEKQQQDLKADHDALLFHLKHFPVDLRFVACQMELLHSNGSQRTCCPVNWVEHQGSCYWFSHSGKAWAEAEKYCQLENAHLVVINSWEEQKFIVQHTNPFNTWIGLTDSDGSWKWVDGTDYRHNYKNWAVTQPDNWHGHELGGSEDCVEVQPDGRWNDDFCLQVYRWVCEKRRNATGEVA
In short: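 HepG2 cells (1×10^5/well) incubated 1 h at 4 °C with 100 nM AF488-labeled anti-human IgG plus serial IgG-based degrader, or 100 nM AF488 rabbit anti-DNP plus serial DNP-based degrader. After washing, cell-associated AF488 MFI read by flow cytometry; peak MFI marks optimal degrader concentration for ternary complex.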

HepG2 cells = experiment: Cellular uptake assay of AF488-labeled antibody (HepG2); type: cell-based
In short: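 Ternary-complex uptake via ASGPR was imaged after fixation: the read-out is AF488-positive HepG2 cells divided by total DAPI nuclei. Degrader dilutions (IgG- or DNP-based, 0.1% DMSO final) were co-incubated 6 h at 37° C. with 100 nM of the corresponding fluorescent antibody.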

ASGPR = biological target: T2, ASGPR (Homo sapiens, UniProt P07306); experiment: Affinity to ASGPR by surface plasmon resonance (SPR)
T2 sequence (P07306 1-291): T1 sequence (P07306 1-291)
Method: Biotinylated ASGPR (20 μg/ml) was immobilized on SA sensor chips (GE Healthcare) at flow rate of 5 μl/min for 90 sec reaching an immobilization level ranging from 500-3000 resonance units (RU). The running buffer was 50 mM HEPES, pH7.5, 150 mM NaCl, 50 mM CaCl2), 0.01% P20, 3% DMSO. The concentration of compounds vary from 2 mM to 5 nM depending on Kd values. The compounds are diluted 2 or 3-fold with 8 concentration points. Solutions containing serially diluted compounds are injected at a flow rate of 40 μL/min for 150-300 sec followed by a 90-300 sec dissociation phase for each concentration. The surface was regenerated using 50 mM HEPES, pH 7.5, 150 mM NaCl, 5 mM EDTA, 0.01% P20, 3% DMSO.
Data was processed using the analysis software in Biacore 8K to perform background subtraction, double referencing, and solvent correction. Values of affinity expressed as the dissociation constants (Kd) were determined by fitting the steady state binding responses (RUs) as a function of the concentration ([Compound]) using the following equation: RU=RUmax/(KD+[Compound]), where RU max is the calculated maximal response. Where appropriate double-referenced data were fit to using a 1:1 binding model for kinetic analysis.

[2] = HepG2 cells, ternary complex formation, read-out: TCF EC50
[3] = HepG2 cells, read-out: Uptake EC50
[4] = TCF EC50, HepG2 cells, ternary complex formation
[5] = Biacore 8K, 25° C., IgG on CM5 chip, read-out: IgG SPR Binding Kd
[6] = HepG2 cells, 100 nM AF488-labeled antibody, 37° C. for 6 hours, class symbols, read-out: Uptake Assay EC50

## CC(C)C[C@@H]1NC(=O)[C@H](Cc2cnc[nH]2)NC(=O)[C@H](Cc2c[nH]c3ccccc23)NC(=O)[C@H](C)NC(=O)[C@@H]2CSSC[C@H](NC(=O)[C@H](Cc3c[nH]c4ccccc34)NC(=O)[C@H](C(C)C)NC(=O)[C@H](CC(C)C)NC(=O)[C@H](CCC(=O)O)NC(=O)CNC1=O)C(=O)N[C@@H]([C@@H](C)O)C(=O)N1CCC[C@@H]1C(=O)N1C[C@@H](NC(=O)c3ccc4c(c3)C(=O)c3cc(C(=O)NC[C@H]5OC[C@H](Nc6cncc(C(F)(F)F)n6)[C@@H](O)[C@H]5O)ccc3-4)C[C@H]1C(=O)N[C@@H](CC(=O)O)C(=O)N2 [Compound 64]
IgG; SPR, read-out: IgG KD
  Kd: < 0.1 µM
[1]; [2]
  EC50: < 0.1 µM
HepG2 cells; [3]
  EC50: 0.1 to 0.5 µM
ASGPR
  Kd: < 0.1 µM

## CC(C)C[C@@H]1NC(=O)[C@H](C)NC(=O)CNC(=O)[C@H](CC(C)C)NC(=O)[C@H](Cc2c[nH]cn2)NC(=O)[C@H](Cc2c[nH]c3ccccc23)NC(=O)[C@H](C)NC(=O)[C@@H]2CSSC[C@H](NC(=O)[C@H](Cc3c[nH]c4ccccc34)NC(=O)[C@H](C(C)C)NC1=O)C(=O)N[C@@H]([C@@H](C)O)C(=O)N1CCC[C@@H]1C(=O)N1C[C@@H](NC(=O)CNC(COCCC(=O)NCCOCCOCCOCCOC[C@H]3OC[C@H](Nc4cncc(C(F)(F)F)n4)[C@@H](O)[C@H]3O)COCCC(=O)NCCOCCOCCOCCOC[C@H]3OC[C@H](Nc4cncc(C(F)(F)F)n4)[C@@H](O)[C@H]3O)C[C@H]1C(=O)N[C@@H](CC(N)=O)C(=O)N2 [Compound 79] (cyclo(ALVWCT[dP][X1](X2)NCAWHLG); disulfide 5-10)
IgG; SPR, read-out: IgG KD
  Kd: < 0.1 µM
[1]; [4]
  EC50: < 0.1 µM
HepG2 cells; [3]
  EC50: < 0.1 µM
ASGPR
  Kd: < 0.1 µM

## CC(C)C[C@@H]1NC(=O)[C@H](Cc2c[nH]cn2)NC(=O)[C@H](Cc2c[nH]c3ccccc23)NC(=O)[C@H](C)NC(=O)[C@@H]2CSSC[C@H](NC(=O)[C@H](Cc3c[nH]c4ccccc34)NC(=O)[C@H](C(C)C)NC(=O)[C@H](CC(C)C)NC(=O)[C@H](CCC(=O)N(C)C)NC(=O)CNC1=O)C(=O)N[C@@H]([C@@H](C)O)C(=O)N1CCC[C@@H]1C(=O)N1C[C@@H](NC(=O)CNC(COCCC(=O)NCCOCCOCCOCCOC[C@H]3OC[C@H](Nc4cncc(C(F)(F)F)n4)[C@@H](O)[C@H]3O)COCCC(=O)NCCOCCOCCOCCOC[C@H]3OC[C@H](Nc4cncc(C(F)(F)F)n4)[C@@H](O)[C@H]3O)C[C@H]1C(=O)N[C@@H](CC(=O)O)C(=O)N2 [Compound 75]
IgG; SPR, read-out: IgG KD
  Kd: < 0.1 µM
[1]
  EC50: < 0.1 µM
HepG2 cells; [3]
  EC50: < 0.1 µM
ASGPR
  Kd: < 0.1 µM

## CC(C)C[C@@H]1NC(=O)[C@H](C)NC(=O)CNC(=O)[C@H](CC(C)C)NC(=O)[C@H](Cc2cnc[nH]2)NC(=O)[C@H](Cc2c[nH]c3ccccc23)NC(=O)[C@H](C)NC(=O)[C@@H]2CSSC[C@H](NC(=O)[C@H](Cc3c[nH]c4ccccc34)NC(=O)[C@H](C(C)C)NC1=O)C(=O)N[C@@H]([C@@H](C)O)C(=O)N1CCC[C@@H]1C(=O)N1C[C@@H](NC(=O)CNC(COCCC(=O)NCCOCCOCCOCCOC[C@H]3OC[C@H](Nc4cncc(C(F)(F)F)n4)[C@@H](O)[C@H]3O)COCCC(=O)NCCOCCOCCOCCOC[C@H]3OC[C@H](Nc4cncc(C(F)(F)F)n4)[C@@H](O)[C@H]3O)C[C@H]1C(=O)N[C@@H](C)C(=O)N2 [Compound 76] (cyclo(ACAWHLGALVWCT[dP][X1](X2)); disulfide 2-12)
IgG; SPR, read-out: IgG KD
  Kd: < 0.1 µM
[1]; [4]
  EC50: < 0.1 µM
HepG2 cells; [3]
  EC50: < 0.1 µM
ASGPR
  Kd: < 0.1 µM

## CC(C)C[C@@H]1NC(=O)[C@H](Cc2c[nH]cn2)NC(=O)[C@H](Cc2c[nH]c3ccccc23)NC(=O)[C@H](C)NC(=O)[C@@H](NC(=O)[C@H](CC(=O)O)NCCOCCOCCOCCOCCNC(=O)CCCc2cn(CCCCCC(=O)NC(COCCC(=O)NCCOCCOCCOCCOC[C@H]3OC[C@H](Nc4nccc(C(F)(F)F)n4)[C@@H](O)[C@H]3O)COCCC(=O)NCCOCCOCCOCCOC[C@H]3OC[C@H](Nc4nccc(C(F)(F)F)n4)[C@@H](O)[C@H]3O)nn2)CSSC[C@@H](C(=O)N[C@H](C(N)=O)[C@@H](C)O)NC(=O)[C@H](Cc2c[nH]c3ccccc23)NC(=O)[C@H](C(C)C)NC(=O)[C@H](CC(C)C)NC(=O)[C@H](CCC(=O)O)NC(=O)CNC1=O [Compound 10]
IgG; read-out: IgG SPR Binding Kd
  Kd: < 0.1 µM
[1]
  EC50: < 0.1 µM
HepG2 cells; read-out: Uptake Assay EC50
  EC50: < 0.1 µM
ASGPR
  Kd: < 0.1 µM

## CC(C)C[C@@H]1NC(=O)[C@H](Cc2c[nH]cn2)NC(=O)[C@H](Cc2c[nH]c3ccccc23)NC(=O)[C@H](C)NC(=O)[C@@H]2CSSC[C@H](NC(=O)[C@H](Cc3c[nH]c4ccccc34)NC(=O)[C@H](C(C)C)NC(=O)[C@H](CC(C)C)NC(=O)[C@H](CCC(=O)N(C)C)NC(=O)CNC1=O)C(=O)N[C@@H]([C@@H](C)O)C(=O)N1CCC[C@@H]1C(=O)N1C[C@@H](NC(=O)CNC(COCCC(=O)NCCOCCOCCOCCOC[C@H]3OC[C@H](Nc4cncc(C(F)(F)F)n4)[C@@H](O)[C@H]3O)COCCC(=O)NCCOCCOCCOCCOC[C@H]3OC[C@H](Nc4cncc(C(F)(F)F)n4)[C@@H](O)[C@H]3O)C[C@H]1C(=O)N[C@@H](CC(N)=O)C(=O)N2 [Compound 78] (cyclo(AWHLGE(NMe2)LVWCT[dP][X1](X2)NC); disulfide 10-15)
IgG; SPR, read-out: IgG KD
  Kd: < 0.1 µM
[1]; [4]
  EC50: < 0.1 µM
HepG2 cells; [3]
  EC50: < 0.1 µM
ASGPR
  Kd: < 0.1 µM

## CC(C)C[C@@H]1NC(=O)[C@H](Cc2cnc[nH]2)NC(=O)[C@H](Cc2c[nH]c3ccccc23)NC(=O)[C@H](C)NC(=O)[C@@H]2CSSC[C@H](NC(=O)[C@H](Cc3c[nH]c4ccccc34)NC(=O)[C@H](C(C)C)NC(=O)[C@H](CC(C)C)NC(=O)[C@H](CCC(=O)O)NC(=O)CNC1=O)C(=O)N[C@@H]([C@@H](C)O)C(=O)N1CCC[C@@H]1C(=O)N1C[C@@H](NC(=O)CCOCCNC(=O)CCCc3cn(C[C@@]45CO[C@@H](O4)[C@H](Nc4nc(Cl)ns4)[C@@H](O)[C@H]5O)nn3)C[C@H]1C(=O)N[C@@H](CC(=O)O)C(=O)N2 [Compound 7]
IgG; [5]
  Kd: < 0.1 µM
[1]
  EC50: < 0.1 µM
HepG2 cells; [6]
  EC50: 0.1 to 0.5 µM
ASGPR
  Kd: < 0.1 µM

## CC(C)C[C@@H]1NC(=O)[C@H](Cc2c[nH]cn2)NC(=O)[C@H](Cc2c[nH]c3ccccc23)NC(=O)[C@H](C)NC(=O)[C@@H]2CSSC[C@H](NC(=O)[C@H](Cc3c[nH]c4ccccc34)NC(=O)[C@H](C(C)C)NC(=O)[C@H](CC(C)C)NC(=O)[C@H](CCC(=O)O)NC(=O)CNC1=O)C(=O)N[C@@H]([C@@H](C)O)C(=O)N1CCC[C@@H]1C(=O)N1C[C@@H](NC(=O)CCOCCOCCOCCOCCNC(=O)CCCc3cn(CCCCCC(=O)NC(COCCC(=O)NCCOCCOCCOCCOC[C@H]4OC[C@H](Nc5nccc(C(F)(F)F)n5)[C@@H](O)[C@H]4O)COCCC(=O)NCCOCCOCCOCCOC[C@H]4OC[C@H](Nc5nccc(C(F)(F)F)n5)[C@@H](O)[C@H]4O)nn3)C[C@H]1C(=O)N[C@@H](CC(=O)O)C(=O)N2 [Compound 16]
IgG; [5]
  Kd: < 0.1 µM
IgG; SPR, read-out: IgG KD
  Kd: < 0.1 µM
[1]
  EC50: < 0.1 µM
[1]; read-out: Ternary Complex EC50
  EC50: < 0.1 µM
HepG2 cells; [6]
  EC50: < 0.1 µM
HepG2 cells; [3]
  EC50: < 0.1 µM
ASGPR
  Kd: < 0.1 µM
ASGPR; read-out: ASGPR KD
  Kd: < 0.1 µM

## CC(C)C[C@@H]1NC(=O)[C@H](Cc2cnc[nH]2)NC(=O)[C@H](Cc2c[nH]c3ccccc23)NC(=O)[C@H](C)NC(=O)[C@@H]2CSSC[C@H](NC(=O)[C@H](Cc3c[nH]c4ccccc34)NC(=O)[C@H](C(C)C)NC(=O)[C@H](CC(C)C)NC(=O)[C@H](CCC(=O)O)NC(=O)CNC1=O)C(=O)N[C@@H]([C@@H](C)O)C(=O)N1CCC[C@@H]1C(=O)N1C[C@@H](NC(=O)CNC(COCCC(=O)NC[C@H]3OC[C@H](Nc4cncc(C(F)(F)F)n4)[C@@H](O)[C@H]3O)COCCC(=O)NC[C@H]3OC[C@H](Nc4cncc(C(F)(F)F)n4)[C@@H](O)[C@H]3O)C[C@H]1C(=O)N[C@@H](CC(=O)O)C(=O)N2 [Compound 65]
IgG; SPR, read-out: IgG KD
  Kd: < 0.1 µM
[1]; [2]
  EC50: < 0.1 µM
HepG2 cells; [3]
  EC50: < 0.1 µM
ASGPR
  Kd: < 0.1 µM
